Data taken from patent US20190127692A1, “Production Method For Hepatocyte Lineage Cells, Hepatocyte Lineage Cell Or Culture Product Obtained By The Production Method, And Hepatocyte Differentiation-Inducing Medium” (National University Corporation Chiba University, priority 2017, published 2019).

Legend:
Format in all cases: cell-based, human
AFP [1] = test: Immunostaining with anti-AFP antibody (Example 6); details: HSM supplemented, 7 days culture
Experimental: 201B7 cells, HSM, ReproFF, and calcium lactate were prepared in the same manner as in Example 2.
The 201B7 cells were seeded to an 8-well chamber slide and cultured. After 100% confluence had been reached, 1 mM calcium lactate was added to HSM, followed by culture for 7 days. As a control, the cells were cultured in ReproFF for 7 days.
The cells were fixed with 4% paraformaldehyde, and washed with phosphate buffered saline (PBS). The cells were incubated at 4° C. for 30 minutes in 100% methanol having added thereto 0.3% hydrogen peroxide solution to inactivate intrinsic peroxidase. The cells were washed three times with PBS. The cells were incubated at 4° C. for 30 minutes in PBS supplemented with 2% fetal bovine serum (wash buffer).
A mouse anti-human alpha-fetoprotein (AFP) antibody (manufactured by Takara Bio Inc., product code: M225) was diluted 1,000-fold with the wash buffer and added, followed by incubation at 4° C. overnight. The resultant was washed three times with PBS. An anti-mouse IgG antibody (manufactured by GE Healthcare) labeled with Horse-radish peroxidase was diluted 1,000-fold with the wash buffer, followed by incubation at 4° C. for 3 hours. The resultant was washed three times with PBS. Color development was performed with 3,3-diaminobenzidine (DAKO, K3467), and nuclei were stained with hematoxylin, followed by mounting.

201B7 cells [2] = test: Optical microscope observation 1: precipitates and cell survival after 7-day culture (Example 3)
Experimental: In the above-mentioned Examples, precipitates were formed in culture dishes in some cases. The formation of the precipitates inhibits contact between cells and medium to adversely affect long-term survival. Therefore, conditions under which the precipitates were not formed were investigated.
201B7 cells, ReproFF, HSM, and calcium lactate were prepared in the same manner as in Example 2.
5×10^4 201B7 cells were seeded to a 96-well plate coated with Matrigel. The next day, to HSM, calcium lactate was added at 3 μM, 10 μM, 30 μM, 100 μM, 300 μM, 1 mM, 3 mM, 10 mM, 30 mM, or 100 mM, followed by culture for 7 days.

201B7 cells [3] = test: Optical microscope observation 2: state of culture cells (Example 5); details: 1 mM, 7 days culture
Experimental: 201B7 cells, HSM, calcium lactate, sodium lactate, and lactic acid were prepared in the same manner as in Example 2.
The 201B7 cells were seeded to a 6-well plate coated with Matrigel, and when 100% confluence had been reached, the medium was exchanged with 1 mM calcium lactate, 1 mM sodium lactate, or 1 mM lactic acid, followed by culture for 7 days.

AFP [4] = test: AFP expression by real-time quantitative PCR (Example 4); details: 1 mM in HSM, 7 days culture, control ReproFF
Experimental: (§1) 201B7 cells, ReproFF, HSM, calcium lactate, and sodium lactate were prepared in the same manner as in Example 2.
(§2) The 201B7 cells were seeded to a 6-well plate coated with Matrigel, and when 100% confluence had been reached, the medium was exchanged with 1 mM calcium lactate (Ca-lactate), 1 mM sodium lactate (Na-lactate), or 1 mM lactic acid (Lactate), followed by culture for 7 days. Control cells were cultured in ReproFF.
(§3) RNA was extracted and analyzed for the expression levels of AFP and albumin by real-time quantitative PCR.

albumin = test: Albumin expression by real-time quantitative PCR (Example 4); details: 1 mM in HSM, 7 days culture, control ReproFF
Experimental: as §1, §2, §3

[5] = in HSM, 7 days culture, optical microscope

Row | Structure (SMILES) | AFP expression (immunostaining) as compared to cells cultured in ReproFF (AFP [1]) | cell survival in HSM supplemented with lactic acid (general remark) (201B7 cells [2]; iPS cells, 7 days) | state of cells as compared to cells cultured with calcium lactate (201B7 cells [3]) | expression of AFP as compared to the undifferentiated state (AFP [4]) | expression of albumin as compared to the undifferentiated state (albumin) | cell survival (201B7 cells [2]; 1 mM in HSM, 7 days culture) | concentration at which precipitates were found (201B7 cells [2]; [5]) | concentration at which precipitates were not found (201B7 cells [2]; [5]) | optical microscope observation, FIG. 3A (201B7 cells [2]; 3 mM, 7 days culture)
1 | CC(O)C(=O)O (stereo not drawn) [lactic acid] | upregulated | survived even after 7 days | collapsing tendency |  |  |  |  |  | 
2 | CC(O)C(=O)[O-].CC(O)C(=O)[O-].[Ca+2] (stereo not drawn) [calcium lactate] |  |  |  | upregulated | upregulated | survived | ≥ 3000 µM | ≤ 1000 µM | 
3 | CC(O)C(=O)[O-].[Na+] (stereo not drawn) [sodium lactate] |  |  | collapsing tendency | upregulated | upregulated |  |  |  | precipitates
